Like-named read-outs stand apart in the source and are kept apart here.
Key:
[1] = molecular target: T1, CDK4 (Homo sapiens, UniProt P11802); assay: CDK4 percentage degradation in Calu-1 cells (immunoblotting); type: cell-based; conditions: for inhibition at 0.2 µM: read-out: CDK4 Degradation (200 nM); for inhibition at 10 µM: read-out: CDK4 Degradation (10 μM)
T1 construct: endogenous in cells; host or cells: Calu-1
How it was run: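 Cultured cells were rinsed once in cold PBS and lysed in cold RIPA buffer containing protease and phosphatase inhibitors, with gentle agitation at 4° C. for 30 min. Lysates were centrifuged at 13,000 rpm for 10 min at 4° C., and protein was quantified by BCA. Samples were then separated by SDS-PAGE, detected with ECL, and the CDK4 bands quantified in Image Lab.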

[2] = tested on: cyclin D1; assay: Cyclin D1 percentage degradation in Calu-1 cells (immunoblotting); type: cell-based; conditions: 16 hours
How it was run: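 Cells were rinsed once in cold PBS and lysed in cold RIPA buffer containing protease and phosphatase inhibitors, with gentle agitation at 4° C. for 30 min. Lysates were spun at 13,000 rpm for 10 min at 4° C., protein was measured by BCA, and samples were boiled in Laemmli buffer at 99° C. for 5 min before SDS-PAGE immunoblotting.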

T1 sequence (P11802 2-303 limits assumed): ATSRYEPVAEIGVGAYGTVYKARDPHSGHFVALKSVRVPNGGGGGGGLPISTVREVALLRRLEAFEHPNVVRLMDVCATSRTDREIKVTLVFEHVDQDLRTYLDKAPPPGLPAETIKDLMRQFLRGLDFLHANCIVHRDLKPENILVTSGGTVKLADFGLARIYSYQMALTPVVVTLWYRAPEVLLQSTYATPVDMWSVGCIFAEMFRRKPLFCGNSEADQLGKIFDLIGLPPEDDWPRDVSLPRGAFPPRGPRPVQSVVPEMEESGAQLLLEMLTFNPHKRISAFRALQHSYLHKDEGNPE
T1 sequence (P24385 whole entry partner): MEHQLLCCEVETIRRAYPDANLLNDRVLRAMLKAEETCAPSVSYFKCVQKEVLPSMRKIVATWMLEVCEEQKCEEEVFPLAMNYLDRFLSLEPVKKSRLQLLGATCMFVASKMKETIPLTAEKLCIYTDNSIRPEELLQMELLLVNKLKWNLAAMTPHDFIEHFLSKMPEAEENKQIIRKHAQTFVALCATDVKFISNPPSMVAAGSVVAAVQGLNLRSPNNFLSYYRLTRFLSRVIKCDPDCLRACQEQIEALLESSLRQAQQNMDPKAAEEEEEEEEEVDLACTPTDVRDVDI
T1 sequence (Q16531 2-1140 limits assumed, further chain): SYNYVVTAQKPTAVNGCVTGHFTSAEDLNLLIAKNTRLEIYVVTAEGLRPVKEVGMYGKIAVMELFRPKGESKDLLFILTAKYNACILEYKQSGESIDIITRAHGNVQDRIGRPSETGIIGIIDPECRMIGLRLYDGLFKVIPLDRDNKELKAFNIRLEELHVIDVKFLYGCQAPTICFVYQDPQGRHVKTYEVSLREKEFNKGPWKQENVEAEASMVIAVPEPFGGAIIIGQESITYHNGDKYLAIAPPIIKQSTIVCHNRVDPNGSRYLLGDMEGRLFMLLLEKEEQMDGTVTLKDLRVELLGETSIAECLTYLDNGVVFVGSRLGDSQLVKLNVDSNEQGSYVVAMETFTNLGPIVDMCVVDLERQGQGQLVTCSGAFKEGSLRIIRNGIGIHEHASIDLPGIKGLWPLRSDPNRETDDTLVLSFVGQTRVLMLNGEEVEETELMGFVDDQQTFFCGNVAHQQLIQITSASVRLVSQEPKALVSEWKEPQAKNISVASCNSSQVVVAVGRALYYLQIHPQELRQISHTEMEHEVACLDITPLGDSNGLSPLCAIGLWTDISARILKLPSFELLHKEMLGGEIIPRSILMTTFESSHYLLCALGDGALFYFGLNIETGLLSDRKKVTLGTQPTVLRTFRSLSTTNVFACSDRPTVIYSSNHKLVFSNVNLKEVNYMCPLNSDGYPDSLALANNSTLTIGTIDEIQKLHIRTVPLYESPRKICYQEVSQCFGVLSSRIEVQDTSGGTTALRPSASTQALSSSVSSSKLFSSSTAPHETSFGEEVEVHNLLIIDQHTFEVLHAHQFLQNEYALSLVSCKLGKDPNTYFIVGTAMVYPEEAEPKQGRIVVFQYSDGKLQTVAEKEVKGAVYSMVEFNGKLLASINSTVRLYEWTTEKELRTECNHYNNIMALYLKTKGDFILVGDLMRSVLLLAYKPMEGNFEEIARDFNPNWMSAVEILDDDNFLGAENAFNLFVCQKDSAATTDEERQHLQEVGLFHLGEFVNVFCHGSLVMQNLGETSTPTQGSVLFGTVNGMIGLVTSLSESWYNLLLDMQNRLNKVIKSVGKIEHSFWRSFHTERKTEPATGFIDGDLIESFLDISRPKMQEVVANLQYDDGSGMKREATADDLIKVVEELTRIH

SMILES | inhibition at 0.2 µM ([1]; Calu-1 cells, 200 nM, 16 hours) [%] | inhibition at 10 µM ([1]; Calu-1 cells, 16 hours) [%] | CyclinD1 Degradation (200 nM) [2] | CyclinD1 Degradation (10 μM) [2] | inhibition at 0.2 µM ([1]; Calu-1, 16 h) [%]
CC(=O)c1c(C)c2cnc(Nc3ccc(N4CCN(CC(=O)NCCOCCOCCC(=O)NC5CCCCC5C(=O)Nc5nc(C)c(C)s5)CC4)cn3)nc2n(C2CCCC2)c1=O (centres unmarked) [CPD-179, 2-(3-(2-(2-(2-(4-(6-((6-Acetyl-8-cyclopentyl-5-methyl-7-oxo-7,8-dihydropyrido[2,3-d]pyrimidin-2-yl)amino)pyridin-3-yl)piperazin-1-yl)acetamido)ethoxy)ethoxy)propanamido)-N-(4,5-dimethylthiazol-2-yl)cyclohexane-1-carboxamide] | < 30 | – | D (protein percentage degradation <30%) | – | –
CC(=O)c1c(C)c2cnc(Nc3ccc(N4CCN(CC(=O)NCCOCCOCCNc5ccc(C)c(C(=O)Nc6nc(C)c(C)s6)c5)CC4)cn3)nc2n(C2CCCC2)c1=O [CPD-089, 5-((2-(2-(2-(2-(4-(6-((6-Acetyl-8-cyclopentyl-5-methyl-7-oxo-7,8-dihydropyrido[2,3-d]pyrimidin-2-yl)amino)pyridin-3-yl)piperazin-1-yl)acetamido)ethoxy)ethoxy)ethyl)amino)-N-(4,5-dimethylthiazol-2-yl)-2-methylbenzamide] | 50 to 80 | – | B (protein percentage degradation <80%, and >=50%) | – | –
CC(=O)c1c(C)c2cnc(Nc3ccc(N4CCN(CC(=O)NCCCCCCCNC(=O)c5ccc(C(=O)Nc6ncc(C)s6)c(C)c5)CC4)cn3)nc2n(C2CCCC2)c1=O [CPD-048, N^4-(7-(2-(4-(6-((6-Acetyl-8-cyclopentyl-5-methyl-7-oxo-7,8-dihydropyrido[2,3-d]pyrimidin-2-yl)amino)pyridin-3-yl)piperazin-1-yl)acetamido)heptyl)-2-methyl-N^1-(5-methylthiazol-2-yl)terephthalamide] | < 30 | – | D (protein percentage degradation <30%) | – | –
CC(=O)c1c(C)c2cnc(Nc3ccc(N4CCN(CCNCCCCCCCNc5cccc(C(=O)Nc6nc(C)c(C)s6)c5C)CC4)cn3)nc2n(C2CCCC2)c1=O [CPD-188, 3-((7-((2-(4-(6-((6-Acetyl-8-cyclopentyl-5-methyl-7-oxo-7,8-dihydropyrido[2,3-d]pyrimidin-2-yl)amino)pyridin-3-yl)piperazin-1-yl)ethyl)amino)heptyl)amino)-N-(4,5-dimethylthiazol-2-yl)-2-methylbenzamide] | – | – | D (protein percentage degradation <30%) | – | < 30
COc1ccc(NC(=O)c2ccccc2NC(=O)CCOCCOCCNC(=O)CN2CCN(c3ccc(Nc4ncc5c(C)c(C(C)=O)c(=O)n(C6CCCC6)c5n4)nc3)CC2)nc1 [CPD-342, 2-(3-(2-(2-(2-(4-(6-((6-Acetyl-8-cyclopentyl-5-methyl-7-oxo-7,8-dihydropyrido[2,3-d]pyrimidin-2-yl)amino)pyridin-3-yl)piperazin-1-yl)acetamido)ethoxy)ethoxy)propanamido)-N-(5-methoxypyridin-2-yl)benzamide] | 50 to 80 | – | A (protein percentage degradation >=80%) | – | –
CC(=O)c1c(C)c2cnc(Nc3ccc(N4CCN(CC(=O)NCCOCCOCCNC(=O)c5ccc(C(=O)Nc6ncc(C)s6)c(C)c5)CC4)cn3)nc2n(C2CCCC2)c1=O [CPD-010, N^4-(2-(2-(2-(2-(4-(6-((6-Acetyl-8-cyclopentyl-5-methyl-7-oxo-7,8-dihydropyrido[2,3-d]pyrimidin-2-yl)amino)pyridin-3-yl)piperazin-1-yl)acetamido)ethoxy)ethoxy)ethyl)-2-methyl-N^1-(5-methylthiazol-2-yl)terephthalamide] | < 30 | – | D (protein percentage degradation <30%) | – | –
CC(=O)c1c(C)c2cnc(Nc3ccc(N4CCN(CC(=O)NCCOCCOCCOCCOCCOCCNc5ccc(C(=O)Nc6ccccc6)c(C)c5)CC4)cn3)nc2n(C2CCCC2)c1=O [CPD-027, 4-((1-(4-(6-((6-Acetyl-8-cyclopentyl-5-methyl-7-oxo-7,8-dihydropyrido[2,3-d]pyrimidin-2-yl)amino)pyridin-3-yl)piperazin-1-yl)-2-oxo-6,9,12,15,18-pentaoxa-3-azaicosan-20-yl)amino)-2-methyl-N-phenylbenzamide] | – | – | D (protein percentage degradation <30%) | – | < 30
Cc1nc(NC(=O)c2ccccc2NC(=O)CCCCCCCCNC(=O)CN2CCN(c3ccc(Nc4ncc(F)c(-c5cc(F)c6nc(C)n(C(C)C)c6c5)n4)nc3)CC2)sc1C [CPD-307, N-(4,5-Dimethylthiazol-2-yl)-2-(9-(2-(4-(6-((5-fluoro-4-(4-fluoro-1-isopropyl-2-methyl-1H-benzo[d]imidazol-6-yl)pyrimidin-2-yl)amino)pyridin-3-yl)piperazin-1-yl)acetamido)nonanamido)benzamide] | – | < 30 | – | D (protein percentage degradation < 30%) | –

Now from value to compound, other results behind:

inhibition at 0.2 µM ([1]; Calu-1 cells, 200 nM, 16 hours) [%] | inhibition at 10 µM ([1]; Calu-1 cells, 16 hours) [%] | SMILES | CyclinD1 Degradation (200 nM) [2] | CyclinD1 Degradation (10 μM) [2] | inhibition at 0.2 µM ([1]; Calu-1, 16 h) [%]
– | 50 to 80 | Cc1nc(NC(=O)c2ccccc2NC(=O)CCOCCOCCNC(=O)CN2CCN(c3ccc(Nc4ncc5cc6n(c5n4)C4(CCCCC4)CNC6=O)nc3)CC2)sc1C [CPD-323, N-(4,5-Dimethylthiazol-2-yl)-2-(3-(2-(2-(2-(4-(6-((6′-oxo-7′,8′-dihydro-6′H-spiro[cyclohexane-1,9′-pyrazino[1′,2′:1,5]pyrrolo[2,3-d]pyrimidin]-2′-yl)amino)pyridin-3-yl)piperazin-1-yl)acetamido)ethoxy)ethoxy)propanamido)benzamide] | – | A (protein percentage degradation >= 80%) | –
– | 30 to 50 | Cc1nc(NC(=O)c2ccccc2NC(=O)CCOCCOCCNC(=O)CN2CCN(c3ccc(Nc4ncc(F)c(-c5cc(F)c6nc(C)n(C(C)C)c6c5)n4)nc3)CC2)sc1C [CPD-309, N-(4,5-Dimethylthiazol-2-yl)-2-(3-(2-(2-(2-(4-(6-((5-fluoro-4-(4-fluoro-1-isopropyl-2-methyl-1H-benzo[d]imidazol-6-yl)pyrimidin-2-yl)amino)pyridin-3-yl)piperazin-1-yl)acetamido)ethoxy)ethoxy)propanamido)benzamide] | – | D (protein percentage degradation < 30%) | –
50 to 80 | – | CC(=O)c1c(C)c2cnc(Nc3ccc(N4CCN(CC(=O)NCCOCCOCCC(=O)Nc5ccccc5C(=O)Nc5ccc(C)nc5)CC4)cn3)nc2n(C2CCCC2)c1=O [CPD-060, 2-(3-(2-(2-(2-(4-(6-((6-Acetyl-8-cyclopentyl-5-methyl-7-oxo-7,8-dihydropyrido[2,3-d]pyrimidin-2-yl)amino)pyridin-3-yl)piperazin-1-yl)acetamido)ethoxy)ethoxy)propanamido)-N-(6-methylpyridin-3-yl)benzamide] | A (protein percentage degradation >=80%) | – | –
50 to 80 | – | CC(=O)c1c(C)c2cnc(Nc3ccc(N4CCN(CC(=O)NCCOCCOCCC(=O)Nc5ccc(N(C)C)cc5C(=O)Nc5nc(C)c(C)s5)CC4)cn3)nc2n(C2CCCC2)c1=O [CPD-151, 2-(3-(2-(2-(2-(4-(6-((6-Acetyl-8-cyclopentyl-5-methyl-7-oxo-7,8-dihydropyrido[2,3-d]pyrimidin-2-yl)amino)pyridin-3-yl)piperazin-1-yl)acetamido)ethoxy)ethoxy)propanamido)-5-(dimethylamino)-N-(4,5-dimethylthiazol-2-yl)benzamide] | C (protein percentage degradation <50%, and >=30%) | – | –
> 80 | – | CC(=O)c1c(C)c2cnc(Nc3ccc(N4CCN(CC(=O)NCCOCCOCCC(=O)Nc5ccccc5C(=O)Nc5ccc(F)cn5)CC4)cn3)nc2n(C2CCCC2)c1=O [CPD-081, 2-(3-(2-(2-(2-(4-(6-((6-Acetyl-8-cyclopentyl-5-methyl-7-oxo-7,8-dihydropyrido[2,3-d]pyrimidin-2-yl)amino)pyridin-3-yl)piperazin-1-yl)acetamido)ethoxy)ethoxy)propanamido)-N-(5-fluoropyridin-2-yl)benzamide] | A (protein percentage degradation >=80%) | – | –
> 80 | – | CCc1nc(NC(=O)c2ccccc2NC(=O)CCOCCOCCNC(=O)CN2CCN(c3ccc(Nc4ncc5c(C)c(C(C)=O)c(=O)n(C6CCCC6)c5n4)nc3)CC2)sc1C [CPD-075, 2-(3-(2-(2-(2-(4-(6-((6-Acetyl-8-cyclopentyl-5-methyl-7-oxo-7,8-dihydropyrido[2,3-d]pyrimidin-2-yl)amino)pyridin-3-yl)piperazin-1-yl)acetamido)ethoxy)ethoxy)propanamido)-N-(4-ethyl-5-methylthiazol-2-yl)benzamide] | A (protein percentage degradation >=80%) | – | –
50 to 80 | – | CC(=O)c1c(C)c2cnc(Nc3ccc(N4CCN(CC(=O)NCCOCCOCCC(=O)Nc5ccc(C)cc5C(=O)Nc5nc(C)c(C)s5)CC4)cn3)nc2n(C2CCCC2)c1=O [CPD-141, 2-(3-(2-(2-(2-(4-(6-((6-Acetyl-8-cyclopentyl-5-methyl-7-oxo-7,8-dihydropyrido[2,3-d]pyrimidin-2-yl)amino)pyridin-3-yl)piperazin-1-yl)acetamido)ethoxy)ethoxy)propanamido)-N-(4,5-dimethylthiazol-2-yl)-5-methylbenzamide] | A (protein percentage degradation >=80%) | – | –
– | 50 to 80 | Cc1nc(NC(=O)c2ccccc2NC(=O)CCCCCCCCNC(=O)CN2CCN(c3ccc(Nc4ncc5cc6n(c5n4)C4(CCCCC4)CNC6=O)nc3)CC2)sc1C [CPD-321, N-(4,5-Dimethylthiazol-2-yl)-2-(9-(2-(4-(6-((6′-oxo-7′,8′-dihydro-6′H-spiro[cyclohexane-1,9′-pyrazino[1′,2′:1,5]pyrrolo[2,3-d]pyrimidin]-2′-yl)amino)pyridin-3-yl)piperazin-1-yl)acetamido)nonanamido)benzamide] | – | A (protein percentage degradation >= 80%) | –

From patent US20250235543A1, “MODIFIED PROTEINS AND PROTEIN DEGRADERS” (Cullgen (Shanghai), Inc., priority 2021, published 2025)
